Results on four compounds are retold here after patent publication US6277876A, “Matrix metalloproteinase inhibitors” (Leo Pharmaceutical Products Ltd. A/S, priority 1998, dated 2001).

SMILES strings stand for the structures.

Assay [1] deals with T1, MMP-9 (Homo sapiens, UniProt P14780).
T1 construct: matrix metalloproteinases were obtained from culture media conditioned by MCF-7 human breast cancer cells; endogenous in cells; host or cells: MCF-7 human breast cancer cells (conditioned culture medium)
The assay is described as follows: In vitro inhibition of MMPs by gelatine zymography (MMP-9). Type of assay: biochemical. As to conditions: concentration that inhibited approximately half of the maximal enzymatic activity; MMPs from MCF-7 conditioned media in gelatine SDS gels, incubated overnight at 37° C., pH 7.5; read-out: In vitro inhibition of matrix metalloproteinases (nM) MMP-9. As to the method: (§1) The compounds were tested in vitro using the following procedure: matrix metalloproteinases were obtained from culture media conditioned by MCF-7 human breast cancer cells and separated by electrophoresis on SDS-acrylamide gels (7.0%) copolymerised with gelatine (1 mg/ml, Sigma, Mo., USA). The gels containing the MMPs were then incubated with the test compounds overnight in 10 ml buffer (50 mM tris-HCl, pH 7.5, 200 mM NaCl, 5 mM CaCl2, 1 μM ZnCl2, 0.002% NaN3) at 37° C. The gels were stained for 60 min with 0.5% Coomassie brilliant blue R-250 in 10% acetic acid, destained with 10% acetic acid, incubated with 5% glycerol, and dried with a gel drier. The molar concentrations that inhibited approximately half of the maximal enzymatic activity were then determined.

Assay [2] relates to MMP-2/3. The assay is described as follows: In vitro inhibition of MMPs by gelatine zymography (MMP-2/3). Type of assay: biochemical, human. Particulars: concentration that inhibited approximately half of the maximal enzymatic activity; MMPs from MCF-7 conditioned media in gelatine SDS gels, incubated overnight at 37° C., pH 7.5; read-out: In vitro inhibition of matrix metalloproteinases (nM) MMP-2/3. On the procedure: as §1

T1 sequence (P14780 94-707): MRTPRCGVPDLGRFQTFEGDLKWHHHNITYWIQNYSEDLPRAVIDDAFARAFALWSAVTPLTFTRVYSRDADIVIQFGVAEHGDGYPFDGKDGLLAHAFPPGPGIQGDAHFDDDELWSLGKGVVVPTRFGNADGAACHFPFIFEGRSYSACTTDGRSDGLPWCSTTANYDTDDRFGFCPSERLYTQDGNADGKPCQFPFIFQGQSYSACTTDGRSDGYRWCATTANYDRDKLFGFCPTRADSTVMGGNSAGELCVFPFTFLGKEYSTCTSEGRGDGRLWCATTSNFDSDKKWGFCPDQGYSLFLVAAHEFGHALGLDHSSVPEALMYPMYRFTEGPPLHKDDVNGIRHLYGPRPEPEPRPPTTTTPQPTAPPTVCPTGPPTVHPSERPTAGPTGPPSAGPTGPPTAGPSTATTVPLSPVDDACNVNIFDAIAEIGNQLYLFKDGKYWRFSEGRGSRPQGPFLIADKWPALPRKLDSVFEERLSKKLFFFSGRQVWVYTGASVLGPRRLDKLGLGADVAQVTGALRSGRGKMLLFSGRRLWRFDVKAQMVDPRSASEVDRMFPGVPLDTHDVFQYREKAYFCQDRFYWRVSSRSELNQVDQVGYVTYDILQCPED

On to `CNC(=O)[C@H](Cc1ccccc1)NC(=O)[C@@H](CC(=O)NO)CC(C)C` [Comparator 1, N^1 -Hydroxy-3R-isobutyl-N^4-[1S-(methylcarbamoyl)-2-phenylethyl]-succinamide, reference compound], for which the IC50 in assay [1] was 10 nM. Regarding `CNC(=S)[C@H](Cc1ccccc1)NC(=O)[C@@H](CC(=O)NO)CC(C)C` [Example 3, N^4 -Hydroxy-2(R)-isobutyl-N^1-[1(S)-(methylthiocarbamoyl)-2-phenylethyl]-succinamide], the IC50 in assay [2] and in assay [1] was 1 nM in each case. As to `CNC(=S)[C@H](Cc1ccccc1)NC(=O)[C@H](CCCc1ccccc1)CC(=O)NO` [Example 4, N^4 -Hydroxy-N^1-[1(S)-(methylthiocarbamoyl)-2-Rhenylethyl]-2(R)-phenylpropyl-succinamide], the IC50 in assay [2] and in assay [1] was 1 nM in each case. With `O=C(C[C@@H](CCCc1ccccc1)C(=O)N[C@@H](Cc1ccccc1)C(=S)NCCCc1ccccc1)NO` [Example 5], the IC50 in assay [2] and in assay [1] was 1 nM in each case.
